Data taken from patent US20180289692A1, “TLR MODULATORS AND METHODS OF USE” (CELGENE CORPORATION, priority 2015, published 2018).
Oligonucleotides are written 5' to 3', each unit as a sugar letter and its base; * is a phosphorothioate linkage, no mark a phosphodiester; rarer units and linkages stand in square brackets, end groups in braces. Plain capitals give the bases only. d = 2'-deoxy (DNA)

Experiments:
Assay type in all cases: cell-based
human PBMCs = test: Cytokine production by human PBMCs treated with ODNs, MagPix Multi-Plex; parameters: key to IL-6, IL-12: (↑) indicates a weak but detectable activity; (↑↑) and (↑↑↑) indicate different levels of moderate activities; (↑↑) and (↑↑↑) indicate different levels of moderate activities; (↑↑↑↑) indicates a strong activity; (−) indicates no detectable activity; details: for IFN-γ / IL-1β / IL-6 / IL-10 / IL-12p40 / IP10 / TNF-α: human PBMC, 24 hrs
Method: PBMC from 3 donors were isolated from Buffy Coat (Blood Center of NY). The cells were washed with PBS and re-suspended in RPMI-1640 Media with 5% Human AB Serum, 1% Pen/Strep and 2 mM L-glutamine. The cells were then plated in 96-well plates at 250,000 cells/well. […] After 24 hrs, the supernatant was harvested and tested for cytokine production using MagPix Multi-Plex Technology. The following cytokines were tested: IL-6, IL-10, IL-12p40, IFN-α, IFN-γ, IP-10, IL-1β and TNF-α.

TLR9 = molecular target: T1, TLR9 (Homo sapiens, UniProt Q9NR96); test: NF-κB reporter gene in recombinant TLR9-expressing HEK293 cells
T1 construct: expressed in transfected cells; host or cells: TLR9 expressing HEK293 reporter cells with a human NF-κB reporter construct
T1 sequence (Q9NR96 26-1032): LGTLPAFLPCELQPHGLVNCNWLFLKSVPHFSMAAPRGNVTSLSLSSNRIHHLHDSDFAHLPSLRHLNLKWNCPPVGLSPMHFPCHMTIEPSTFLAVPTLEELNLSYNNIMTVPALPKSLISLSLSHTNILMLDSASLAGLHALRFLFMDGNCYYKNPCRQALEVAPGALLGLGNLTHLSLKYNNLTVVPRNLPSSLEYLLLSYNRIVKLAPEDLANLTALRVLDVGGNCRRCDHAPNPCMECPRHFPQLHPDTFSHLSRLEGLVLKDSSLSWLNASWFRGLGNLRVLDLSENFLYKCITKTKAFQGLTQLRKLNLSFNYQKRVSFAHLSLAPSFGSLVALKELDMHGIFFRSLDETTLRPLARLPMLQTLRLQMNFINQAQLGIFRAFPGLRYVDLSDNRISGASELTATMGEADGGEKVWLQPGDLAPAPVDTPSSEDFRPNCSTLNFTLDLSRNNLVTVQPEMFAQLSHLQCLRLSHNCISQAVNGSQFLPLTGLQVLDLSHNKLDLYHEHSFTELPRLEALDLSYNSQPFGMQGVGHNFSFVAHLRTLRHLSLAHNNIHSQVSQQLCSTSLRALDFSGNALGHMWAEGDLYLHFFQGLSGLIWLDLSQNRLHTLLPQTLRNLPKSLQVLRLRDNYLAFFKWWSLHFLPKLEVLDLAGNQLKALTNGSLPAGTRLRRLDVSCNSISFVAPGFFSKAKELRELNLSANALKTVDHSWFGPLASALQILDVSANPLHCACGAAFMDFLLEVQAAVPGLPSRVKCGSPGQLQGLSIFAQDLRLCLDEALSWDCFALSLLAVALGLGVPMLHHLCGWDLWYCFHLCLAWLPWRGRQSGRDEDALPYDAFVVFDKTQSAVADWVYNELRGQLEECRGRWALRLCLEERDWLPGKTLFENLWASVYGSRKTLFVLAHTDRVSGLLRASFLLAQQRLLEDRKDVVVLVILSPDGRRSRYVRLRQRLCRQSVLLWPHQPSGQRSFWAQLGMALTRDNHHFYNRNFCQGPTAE
Method: FIGS. 16A-B show results of experiments in which recombinant TLR-expressing HEK293 cells carrying an NF-κB reporter gene were incubated with COMPOUND(I), ODN150, ODN2006, or ODN7040 for 48 hours at the indicated concentrations.

purified human pDCs = test: pDC differentiation, differentiation markers CD86, CD83, CCR6, CCR7 by flow cytometry; parameters: key: (↑) indicates a weak but detectable activity; (↑↑) and (↑↑↑) indicate different levels of moderate activities; (↑↑) and (↑↑↑) indicate different levels of moderate activities; (↑↑↑↑) indicates a strong activity; (−) indicates no detectable activity; details: relative strength, Table 6
[1] = PBMC, relative strength, Table 6

**Q.** For “ODN150: 5′-G*G*A*ACAGTTCGTCCAT*G*G*C-3′, PO except * = PS; antisense to p65 of NF-kB mRNA; tested clinically for ulcerative colitis (DNA dG*dG*dA*dAdCdAdGdTdTdCdGdTdCdCdAdT*dG*dG*dC)”, which “IL-6, IL-12” value (human PBMCs; [1]) is on record?
**A.** The value was “↑”.

**Q.** And the “TNFα, IFNγ” value (human PBMCs; [1])?
**A.** The value was “—/↑”.

**Q.** What about the “IFNα secretion from PBMCs” value (human PBMCs; any tested concentration between 0.01 μM and 10 μM, FIG. 25) of the same substance?
**A.** The value was “not found to induce”.

**Q.** What about the IFN-γ (human PBMCs; high-dose ODN 10 μM) of the same substance?
**A.** The IFN-γ was 0.2 pg/mL.

**Q.** And the IL-1β (human PBMCs; high-dose ODN 10 μM)?
**A.** The IL-1β was 0.6 pg/mL.

**Q.** And the IL-6 (human PBMCs; high-dose ODN 10 μM)?
**A.** The IL-6 was 11.8 fold change.

**Q.** And the IL-10 (human PBMCs; high-dose ODN 10 μM)?
**A.** Its IL-10 is 1.6 fold change.

**Q.** What about the IL-12p40 (human PBMCs; high-dose ODN 10 μM) of the same substance?
**A.** Its IL-12p40 is 0 pg/mL.

**Q.** What about the IP10 (human PBMCs; high-dose ODN 10 μM) of the same substance?
**A.** The IP10 was 8.1 fold change.

**Q.** And the TNF-α (human PBMCs; high-dose ODN 10 μM)?
**A.** The TNF-α was 2 fold change.

**Q.** And the IFN-γ (human PBMCs; low-dose ODN 0.1 μM)?
**A.** Its IFN-γ is 0.2 pg/mL.

**Q.** What about the IL-1β (human PBMCs; low-dose ODN 0.1 μM) of the same substance?
**A.** The IL-1β was 0.2 pg/mL.

**Q.** And the IL-6 (human PBMCs; low-dose ODN 0.1 μM)?
**A.** Its IL-6 is 1.2 fold change.

**Q.** And the IL-10 (human PBMCs; low-dose ODN 0.1 μM)?
**A.** The IL-10 was 0.9 fold change.

**Q.** What about the IL-12p40 (human PBMCs; low-dose ODN 0.1 μM) of the same substance?
**A.** The IL-12p40 was 0 pg/mL.

**Q.** What about the IP10 (human PBMCs; low-dose ODN 0.1 μM) of the same substance?
**A.** Its IP10 is 1.5 fold change.

**Q.** What about the TNF-α (human PBMCs; low-dose ODN 0.1 μM) of the same substance?
**A.** The TNF-α was 1.2 fold change.

**Q.** What about the “TLR pathway activation (NF-κB)” value (TLR9; Reporter Cell, relative strength, Table 6) of the same substance?
**A.** Its value is “↑ ↑”.

**Q.** What about the “NF-κB reporter gene activation” value (TLR9; TLR9-expressing HEK293 cells, 48 hours, FIGS. 16A-B) of the same substance?
**A.** The value was “concentration-dependent NF-kB induction”.

**Q.** What about the pDC differentiation (purified human pDCs) of the same substance?
**A.** The pDC differentiation was “↑”.
